Source: US20160025711A1, “FLUORESCENT MARKERS AND METHODS FOR IMAGING DISEASES” (BOARD OF SUPERVISORS OF LOUISIANA STATE UNIVERSITY AND …, priority 2013, published 2016)
Where two headings read alike, the source gives them in different places. Each block holds one compound with its values, some of them ahead of it.

Columns and labels:
[1] = Voltammetric redox potentials and Rehm-Weller calculation of PeT energy; type: physicochemical
Source text: Embodiments of the present invention provide a probe (Q3NI) having fluorescence signal of a naphthalimide reporter quenched via oxidative electron transfer (OeT) by a covalently attached quinone propionic acid motif. See, e.g. FIG. 3A. The Q3NI provides the novel mechanism of reporter quenching by carefully tuning the electronic and optical properties of the quinone (Q3) OeT quencher and the naphthalimide reporter (NI), due to extant naphthalimide reporters that are quenched by reductive electron-transfer (ReT). The Rehm-Weller equation,
(§1) was used to examine possible quinone propionic acid quenchers and 1,8-naphthalimide reporters as well as linkers between the OeT quencher and the NI reporter, so as to ensure that quenching is thermodynamically feasible and efficient. In this equation, ED is the redox potential of the donor and EA that of the acceptor, ΔG00 is the energy of the first excited singlet state of the reporter, and e^2/εd is the Coulombic interaction energy of the ion pair, known to be 0.06 eV. The energy of the first excited singlet state of NI was measured to be 3.06 eV. […] The quinone was attached to the naphthalimide via an N-methylethanolamine linker through a carbamate to the amine of the naphthalimide ring. This linker imparts three properties on Q3NI: the linker is sufficiently short to allow for a high probability of electron transfer, the electron-withdrawing carbamate yields a favorable ΔGPeT, and the presence of the tertiary amide provides enhanced environmental stability. As a result, the fluorescence of Q3NI in pH 7.4, 0.1 M PBS is effectively quenched in comparison to that of the free NI reporter, as noted by their spectra in FIGS. 3B and 3C and respective fluorescence quantum yields Φ of 0.007 and 0.23 obtained using quinine sulfate as standard. […] The 33-fold fluorescence enhancement for NI versus Q3NI and very large Stokes shift of 116 nm (λmax abs=374 run, λmax em=490 nm) bode well for use of Q3NI as a multifunctional turn-on probe for sensing and imaging applications that utilize reductive stimuli capable of initiating removal of the reduced quinone group.

[2] = pKa of secondary amine of reporter; type: physicochemical
fixed samples = test: Reporter retention in paraformaldehyde-fixed cell samples; type: cell-based; conditions: paraformaldehyde fixing; fixed samples stored for 10 months in the laboratory ambient
Source text: (§2) There was no indication of reporter in the nucleus, pointing to the lack of NQOI there; this is in contrast to previous work using immunohistochemical staining of penneabilized, fixed cells. The average cytosolic signal was 9 times higher in A549 cells versus NQOI-negative H596 cells, while it was 23 times higher in HT-29 cells compared to the NQOI-negative H596 cells. […] Accumulation of the basic (secondary amine pKa ˜11) NI occurred in acidic late endosomal and lysosomal vesicles, a beneficial outcome that leads to enhanced intracellular retention of NI. […] Collectively, there is great potential for use of our probe/reporter system for ex vivo quantitative analysis of excised tumor cells and long-term in vivo and in vitro imaging.

[3] = Fluorescence spectra and quantum yield in pH 7.4, 0.1 M PBS; type: physicochemical; conditions: for fluorescence quantum yield Φ: quinine sulfate as standard
Source text: as §1

H596 [4] = test: Trypan blue cell viability assay; type: cell-based, human; conditions: 2.0×10^−5 M Q3NI
Source text: (§3) Multiphoton (MP) microscopy imaging of cells and tissues may be more advantageous than traditional fluorescence microscopy, because use of the characteristic long-wavelength photons offers higher fluorophore and cellular photostability that provides extended imaging duration, less background signal from out-of-focus excitation and scattering events, and deeper penetration depth. In addition, MP imaging is ideal for direct observation of targets in their physiological environment and ex vivo thick-specimen sampling where 2D and 3D maps can be generated. […] As before, the signal appears somewhat heterogeneous throughout the cytosolic space of the HT-29 and A549 cells due to NI accumulation in acidic organelles. To ensure Q3NI and NI had little effect on cell health, cells were incubated in a 2.0×10^−5 M Q3NI solution in complete growth medium for 1 h and 1 day, and then cell viability was assessed with a trypan blue assay. After 1 h, cell viability for HT-29, A549, and H596 was 97.7%, 98.8%, and 100%, while it was 97.7%, 98.7%, and 98.4% after 24 h.

HT-29 [5] = test: Trypan blue cell viability assay; type: cell-based, human; conditions: 2.0×10^−5 M Q3NI
Source text: as §3

A549 [6] = test: Trypan blue cell viability assay; type: cell-based, human; conditions: 2.0×10^−5 M Q3NI
Source text: as §3

H596 [7] = test: 2-photon microscopy of living cells; type: cell-based, human; conditions: 2.0×10^−5 M Q3NI in complete growth medium
Source text: as §3

HT-29 cell line = test: 2-photon microscopy of living cells; type: cell-based, human; conditions: 2.0×10^−5 M Q3NI in complete growth medium
Source text: as §3

H446 [8] = test: 2-photon microscopy of living cells; type: cell-based, human; conditions: 2.0×10^−5 M Q3NI in complete growth medium
Source text: as §3

A549 cells [9] = test: 2-photon microscopy of living cells; type: cell-based, human; conditions: 2.0×10^−5 M Q3NI in complete growth medium
Source text: as §3

H596 cells = test: Wide-field fluorescence imaging of fixed cells; type: cell-based, human; conditions: 10 min exposure
Source text: as §2

A549 cells [10] = test: Wide-field fluorescence imaging of fixed cells; type: cell-based, human; conditions: 10 min exposure
Source text: as §2

HT-29 cells = test: Wide-field fluorescence imaging of fixed cells; type: cell-based, human; conditions: 10 min exposure
Source text: as §2

H596 [11] = test: Flow cytometry assay of Q3NI activation; type: cell-based, human; conditions: 10 min or 60 min incubation; λex=405 nm, λem=457/60 nm; 10,000 cells
Description: (§4) Flow cytometry assays were used to assess the applicability of the Q3NI probe to rapidly detect and quantify tumor cells containing hNQO1. See, FIG. 8. The probe was incubated in a suspension of HT-29, A549, H596, and H446 (a small-cell lung carcinoma known to be devoid of hNQO1 activity) cells for either 10 min or 60 min, and a flow cytometer was used to measure fluorescence (λex=405 nm, λem=457/60 nm) in 10,000 individual cells. […] Importantly, the sustained low fluorescence observed with the H446 cells (FIG. 8) points to the intracellular stability of Q3NI (lack of nonspecific activation).

HT-29 [12] = test: Flow cytometry assay of Q3NI activation; type: cell-based, human; conditions: 10 min or 60 min incubation; λex=405 nm, λem=457/60 nm; 10,000 cells
Description: as §4

A549 [13] = test: Flow cytometry assay of Q3NI activation; type: cell-based, human; conditions: 10 min or 60 min incubation; λex=405 nm, λem=457/60 nm; 10,000 cells
Description: as §4

H446 [14] = test: Flow cytometry assay of Q3NI activation; type: cell-based, human; conditions: 10 min or 60 min incubation; λex=405 nm, λem=457/60 nm; 10,000 cells
Description: as §4

[15] = molecular target: human NAD(P)Rquinone oxidoreductase isozyme 1 (hNQO1) (Homo sapiens, UniProt P15559); test: Michaelis-Menten kinetics of hNQO1 activation of the probe (NI reporter production); type: biochemical
Chain of human NAD(P)Rquinone oxidoreductase isozyme 1 (hNQO1) (P15559 whole entry): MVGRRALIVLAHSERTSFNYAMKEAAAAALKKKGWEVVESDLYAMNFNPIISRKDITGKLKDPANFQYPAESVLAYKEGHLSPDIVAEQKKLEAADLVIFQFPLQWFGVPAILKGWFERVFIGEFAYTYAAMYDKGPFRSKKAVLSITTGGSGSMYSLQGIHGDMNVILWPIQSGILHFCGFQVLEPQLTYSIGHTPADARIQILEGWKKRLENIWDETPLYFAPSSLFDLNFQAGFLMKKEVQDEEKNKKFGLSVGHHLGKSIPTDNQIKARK
Source text: In embodiments of the present in invention hNQO 1 reduces fluorescent probes cloked with a quinone moiety. In embodiments of the present invention, Q3NI is a probe capable of activation by hNQO1 to yield the NI reporter at a significant rate. Apparent kinetic parameters of Q3NI were obtained from Michaelis-Menten kinetic treatment of the time-dependent NI reporter production, namely the Michaelis constant (Km), maximum velocity (Vmax), catalytic constant (kcat), and substrate specificity (kcat/Km). The high rate of NI reporter production under in vitro conditions is readily apparent in FIG. 7; after 5 min, a fluorescent signal has been attained that is 22% of the maximum achievable, yielding 2.2×10^−7 M of released reporter.

H596 [16] = test: Unaided-eye visualization of cultured cells with handheld 365 nm lamp; type: cell-based, human; conditions: 2×10^−5 M Q3NI, 10 min incubation; 3.96×10^6 total cells
Description: (§5) Embodiments of the present invention may allow for cancer cells to be rapidly visualized and differentiated. […] After a 10 min incubation period in a cell culture solution containing 2×10^−5 M Q3NI, it was possible to differentiate between the various substrate-cultured cells (4.84 cm^2) using only a handheld fluorescent lamp emitting at 365 nm and the unaided eye. […] The ability to visually determine the presence of hNQO1 in a small number of cells is due to the marked difference in fluorescence from the unquenched NI reporter (Φ=0.23) and quenched Q3NI probe (Φ=0.007) and the large Stokes shift of the NI reporter that results in fluorescence emission in the visible spectrum (400 nm to ˜600 nm). These outcomes point to use of the Q3NI probe sensor in the real-time, visible (without the aid of imaging equipment), and accurate determination of tumor/healthy tissue borders so as to allow for surgical resection of tumors with small foci.

HT-29 [17] = test: as above; type: cell-based, human; conditions: 2×10^−5 M Q3NI, 10 min incubation; 3.69×10^6 total cells
Description: as §5

A549 [18] = test: as above; type: cell-based, human; conditions: 2×10^−5 M Q3NI, 10 min incubation; 5.72×10^6 total cells
Description: as §5

[19] = other dyes applied to cancer detection and localization; cited from earlier work

energy of the first excited singlet state [1]: 3.06 eV
ED, redox potential of the donor ([1]; voltammetric measurements): 1.74 V
secondary amine pKa [2]: ~11
efflux of reporter from cells / fluorescence retention (fixed samples): no apparent efflux
fluorescence enhancement for NI versus Q3NI ([3]; pH 7.4, 0.1 M PBS): 33 fold
fluorescence quantum yield Φ ([3]; pH 7.4, 0.1 M PBS): 0.23
Stokes shift ([3]; λmax abs=374, λmax em=490 nm): 116 nm
SMILES: CCCCN1C(=O)c2cccc3c(NC(=O)OCCNC)ccc(c23)C1=O [NI]

ΔGPeT, energy change for the OeT process ([1]; Rehm-Weller equation): −0.37 eV
EA, redox potential of the acceptor (quinone propionic acid group) ([1]; voltammetric measurements): −1.01 V
fluorescent signal as % of the maximum achievable ([15]; after 5 min, in vitro): 22%
released reporter ([15]; after 5 min, in vitro): 220 nM
catalytic constant (kcat) ([15]; apparent, FIG. 7): 0.019 ± 0.001 s⁻¹
maximum velocity (Vmax) ([15]; apparent, FIG. 7): 0.037±0.002 μmol min^−1 mg·NQO^−1
Km ([15]; apparent, from time-dependent NI reporter production, FIG. 7, read-out: Michaelis constant (Km)): 3.86 ± 0.79 µM
fluorescence quantum yield Φ ([3]; pH 7.4, 0.1 M PBS): 0.007
SMILES: CCCCN1C(=O)c2cccc3c(NC(=O)OCCN(C)C(=O)CC(C)(C)C4=C(C)C(=O)C(C)=C(C)C4=O)ccc(c23)C1=O [Q3NI]
cell viability (H596 [4]; after 1 h): 100%
cell viability (H596 [4]; after 24 h): 98.4%
cell viability (HT-29 [5]; after 1 h): 97.7%
cell viability (HT-29 [5]; after 24 h): 97.7%
cell viability (A549 [6]; after 1 h): 98.8%
cell viability (A549 [6]; after 24 h): 98.7%
fluorescence signal from NI (H596 [7]): minimal signal
cytosolic intensity compared to H446 cells (HT-29 cell line): 4.51×10^4 fold
cytosolic intensity compared to H596 cells (HT-29 cell line): 15 fold
fluorescence signal from NI (H446 [8]): minimal signal
average fluorescence signal compared to H596 cells (A549 cells [9]): 13 fold
average fluorescence signal versus H446 cells (A549 cells [9]): 3.66×10^4 fold
intracellular NI fluorescence signal (H596 cells): minimal signal
average cytosolic signal versus NQO1-negative H596 cells (A549 cells [10]): 9 times
average cytosolic signal versus NQO1-negative H596 cells (HT-29 cells): 23 times
flow cytometry fluorescence histogram (H596 [11]): minimal fluorescence
flow cytometry fluorescence histogram (HT-29 [12]): high-intensity, unimodal distribution of signals
flow cytometry fluorescence histogram (A549 [13]): high-intensity, unimodal distribution of signals
flow cytometry fluorescence histogram (H446 [14]): minimal fluorescence
appearance under 365 nm handheld lamp, unaided eye (H596 [16]): no apparent emission
appearance under 365 nm handheld lamp, unaided eye (HT-29 [17]): fluorescent blue
appearance under 365 nm handheld lamp, unaided eye (A549 [18]): fluorescent blue

SMILES: CC1(C)C(/C=C/C=C/C=C/C=C2\N(CCCCS(=O)(=O)O)c3ccc4ccccc4c3C2(C)C)=[N+](CCCCS(=O)(=O)[O-])c2ccc3ccccc3c21 [indocyanine green]
fluorescence quantum yield Φ [19]: 0.0028
